The values that follow come from patent publication US12678424B2, “Method for preventing and/or treating systemic inflammation” (THE BOARD OF TRUSTEES OF THE LELAND STANFORD JUNIOR …, priority 2015, dated 2026).

Common to all, as to format: in vivo, mice (C57BL6)
Assay [1] is described as follows: Marble burying assay in older mice. Particulars: older mice at 52 weeks of age, 25 mg/kg oral 3 times a week for 15 weeks, 12 marbles, 30 minutes, vs vehicle-treated older mice, p<0.05. As to the method:
All animal studies were conducted under protocols approved by APLAC from Stanford University. Older and young animals on C57BL6 background were purchased from Taconic. Older animals are defined as those above 36 weeks of age, when physiological aging process accelerates in mice, while young counterparts are 20 weeks of age. Data are presented as mean±SEM. Two-tailed Student's t-test and two-way ANOVA were used for statistical analyses. A p value of <0.05 is considered to be statistically significant.
Animals were orally treated 3 times a week for 15 weeks with 0.5% methylcellulose (vehicle) or ZLN005 (Sigma) at 25 mg/kg in vehicle, starting at 37 weeks of age. At 52 weeks of age, the older animals were subjected to a marble burying assay, a behavioral test of anxiety (Dekeyne A. Therapie. 60:477-84.2005). Each animal was given 12 marbles on top of bedding in individual cage and allowed to run free in the cage for 30 minutes. After this period of time, each buried marble was individually assigned a number based on its degree of being buried (1=90-100% hidden, 0.75=60-90% hidden, 0.5=30-60% hidden, 0=below 30% hidden), and then the sum of the numbers of 12 marbles buried by each mouse is calculated as the marble burying score of the mouse. […] Unpaired t-test was used for statistical analysis.

The subject of assay [2] is microglia. The assay is described as follows: Flow cytometry of brain microglia for Slc2al expression and 2-NBDG glucose uptake in older mice. The note with it: 25 mg/kg oral 3 times a week for 15 weeks from 37 weeks of age, vs vehicle-treated older mice, p<0.05. As to the method: All animal studies were conducted under protocols approved by APLAC from Stanford University. Older and young animals on C57BL6 background were purchased from Taconic. Older animals are defined as those above 36 weeks of age, when physiological aging process accelerates in mice, while young counterparts are 20 weeks of age. Data are presented as mean±SEM. Two-tailed Student's t-test and two-way ANOVA were used for statistical analyses. A p value of <0.05 is considered to be statistically significant. Older animals were orally treated 3 times a week for 15 weeks with 0.5% methylcellulose (vehicle) or ZLN005 (Sigma) at 25 mg/kg in vehicle, starting at 37 weeks of age. Treated older animals (n=6), non-treated older animals (n=6), and young animals (20 weeks old, n=6) were sacrificed after drug treatment and their brain tissues collected. PBS-perfused brain tissues of sacrificed animals were digested with Collagenase I and processed for flow cytometry (Ginhoux et al Science, 330:841-5, 2010). Brain microglia were phenotyped with 2-NBDG (2-(N-(7-nitrobenz-2-oxa-1,3-diazol-4-yl)amino)-2-deoxyglucose, Invitrogen) and anti-Slc2al antibody (RnD) for flow cytometric acquisition (LSRII, BD) and analysis (FlowJo). The results are summarized in FIG. 1: Y-axis represents % of microglia that either express glucose transporter Slc2al or have taken up glucose fluorescent analog 2-NBDG. […]
Background: Flow cytometry measures light scatter and fluorescence of single cells or particles in a stream.

For a further assay, the system named is TNF-α. Nature of the assay: Serum TNF-α by ELISA in older mice (systemic inflammation). The note with it: 25 mg/kg oral 3 times a week for 15 weeks, vs vehicle-treated older mice, p<0.05. As to the method:
(§1) All animal studies were conducted under protocols approved by APLAC from Stanford University. Older and young animals on C57BL6 background were purchased from Taconic. Older animals are defined as those above 36 weeks of age, when physiological aging process accelerates in mice, while young counterparts are 20 weeks of age. Data are presented as mean±SEM. Two-tailed Student's t-test and two-way ANOVA were used for statistical analyses. A p value of <0.05 is considered to be statistically significant. Older animals were orally treated 3 times a week for 15 weeks with 0.5% methylcellulose (vehicle) or ZLN005 (Sigma) at 25 mg/kg in vehicle, starting at 37 weeks of age. Treated older animals (n=6), non-treated older animals or aged animals (n=6), and young animals (20 weeks old, n=6) were sacrificed after drug treatment and their brain tissues were collected. PBS-perfused brain tissues of sacrificed animals were digested with Collagenase I and processed for flow cytometry (Ginhoux et al Science. 330:841-5.2010). Brain microglia were phenotyped with fluorochrome-labeled antibodies to CCL2 and TNF-α (Biolegend) for flow cytometric acquisition (LSRII. BD) and analysis (FlowJo). TNF-α levels in serum of young mice, vehicle-treated older mice, and ZLN-treated older mice (from Example 2) were measured by ELISA to determine TNF-α levels which indicated systemic inflammation. […]
On the technique in general: ELISA stands for enzyme-linked immunosorbent assay.

For assay [3], the system named is microglia. The assay is described as follows: Flow cytometry of brain microglia for CCL2 and TNF-α production in older mice. Particulars: 25 mg/kg oral 3 times a week for 15 weeks from 37 weeks of age, vs vehicle-treated older mice. How it is done:
as §1, with “The results are summarized” for “TNF-α levels”, “FIG. 2: Y-axis represents %” for “serum”, “microglia that express CCL2 or TNF-α. ANOVA was used for statistical analysis.” for “young mice, vehicle-treated older mice, and ZLN-treated older mice (from Example 2) were measured by ELISA to determine TNF-α levels which indicated systemic inflammation.”

SMILES strings stand for the structures.

As to `CC(C)(C)c1ccc(-c2nc3ccccc3[nH]2)cc1` [ZLN005, 2-(4-tert-Butylphenyl)-1H-benzimidazole], the marble burying score result in assay [1] was “reduced the anxiety phenotype”. Moreover, in the assay on microglia [2], the “% of microglia that express glucose transporter Slc2al” value is recorded as “decreased” and the “% of microglia that have taken up glucose fluorescent analog 2-NBDG (glucose uptake)” value was “decreased”. Also, the “concentration of TNF-α in serum” value with TNF-α is on record as “decreased”. The “% of microglia that express CCL2” value in the assay on microglia [3] (p<0.01) is recorded as “decreased”. Moreover, in the assay on microglia [3] (p<0.05), the “% of microglia that express TNF-α” value was “decreased”.
